Several values for one entry are separate records, joined by “and”; a condition that tells them apart may be missing. Equal entries are not always repeated. Where two headings read alike, the source gives them in different places.
Legend:
Botrytis cinerea [1] = format: cell-based; parameters: key to Plate antimicrobial activity test Botrytis cinerea, level: a case where hyphae extended to the entire well and no antimicrobial activity was found is defined as “level 0,”; a case where hyphae extended to less than a half of the well and thus the peptide inhibited the growth of the hyphae is defined as “level 1,”; a case where ungerminated spores were present and the peptide partially inhibited the germination is defined as “level 2,”; a case where all spores were ungerminated and the peptide completely inhibited the germination is defined as “level 3.”; details: 25° C. for 1 day or 2 days, microscopic observation
[2] = test system: Colletotrichum destructivum; format: cell-based; parameters: key to Plate antimicrobial activity test Colletotrichum destructivum, level: a case where hyphae extended to the entire well and no antimicrobial activity was found is defined as “level 0,”; a case where hyphae extended to less than a half of the well and thus the peptide inhibited the growth of the hyphae is defined as “level 1,”; a case where ungerminated spores were present and the peptide partially inhibited the germination is defined as “level 2,”; a case where all spores were ungerminated and the peptide completely inhibited the germination is defined as “level 3.”; details: 25° C. for 1 day or 2 days, microscopic observation
[3] = test system: Colletotrichum orbiculare; format: cell-based; parameters: key to Plate antimicrobial activity test Colletotrichum orbiculare, level: a case where hyphae extended to the entire well and no antimicrobial activity was found is defined as “level 0,”; a case where hyphae extended to less than a half of the well and thus the peptide inhibited the growth of the hyphae is defined as “level 1,”; a case where ungerminated spores were present and the peptide partially inhibited the germination is defined as “level 2,”; a case where all spores were ungerminated and the peptide completely inhibited the germination is defined as “level 3.”; details: 25° C. for 1 day or 2 days, microscopic observation
Fusarium oxysporum = format: cell-based; parameters: key to Plate antimicrobial activity test Fusarium oxysporum, level: a case where hyphae extended to the entire well and no antimicrobial activity was found is defined as “level 0,”; a case where hyphae extended to less than a half of the well and thus the peptide inhibited the growth of the hyphae is defined as “level 1,”; a case where ungerminated spores were present and the peptide partially inhibited the germination is defined as “level 2,”; a case where all spores were ungerminated and the peptide completely inhibited the germination is defined as “level 3.”
Pyricularia oryzae = format: cell-based; parameters: key to Plate antimicrobial activity test Pyricularia oryzae, level: a case where hyphae extended to the entire well and no antimicrobial activity was found is defined as “level 0,”; a case where hyphae extended to less than a half of the well and thus the peptide inhibited the growth of the hyphae is defined as “level 1,”; a case where ungerminated spores were present and the peptide partially inhibited the germination is defined as “level 2,”; a case where all spores were ungerminated and the peptide completely inhibited the germination is defined as “level 3.”; details: 25° C. for 1 day or 2 days, microscopic observation
[4] = test system: Colletotrichum destructivum; test: Colletotrichum destructivum leaf inoculation test (Chinese cabbage leaf); format: in vivo; details: Chinese cabbage leaf, 25° C. for 4 days, lesions by visual inspection, symbols ◯/Δ/X not defined
Protocol: In the present example, a suspension comprising Colletotrichum destructivum and a peptide to be tested was dropped on a plant leaf, and lesions were then observed by visual inspection to evaluate the antimicrobial activity of the tested peptide. First, the pores of Colletotrichum destructivum were suspended in water to result in a spore concentration of 5×10^5 spores/ml, so as to prepare a water suspension of spores. Subsequently, a peptide to be tested (TsORF6-1) was added to the water suspension of spores, so that the final concentration of the peptide to be tested became 0 μM, 1 μM, 10 μM or 100 μM. Thereafter, 10 μl each of the water suspension of spores containing the peptide to be tested was dropped on the front side and the back side of the leaf of Chinese cabbage (variety name: “Kigokoro 85”). In this condition, incubation was carried out at 25° C. for 4 days. Thereafter, the front and back sides of the leaf were observed by visual inspection.

[5] = test system: plant pathogenic filamentous fungi; format: cell-based; details: Table 3
Botrytis cinerea [6] = test: Botrytis cinerea leaf inoculation test (tomato leaf); format: in vivo; details: FIG. 2; PDB suspension spore solution containing 100 μl peptide; 25° C. for 2 days
Protocol: In the present example, a suspension comprising Botrytis cinerea and a peptide to be tested was dropped on a plant leaf, and lesions were then observed by visual inspection to evaluate the antimicrobial activity of the tested peptide. First, the pores of Botrytis cinerea were suspended in a potato dextrose broth (PDB) to result in a spore concentration of 5×10^5 spores/ml, so as to prepare a PDB suspension spore solution. Subsequently, a peptide to be tested (TsORF6-1) was added to the PDB suspension spore solution, so that the final concentration of the peptide to be tested became 0 μM, 1 μM, 10 μM or 100 μM. Thereafter, 10 μl each of the PDB suspension spore solution containing the peptide to be tested was dropped on the front side and the back side of the leaf of tomato (variety name: “Momotaro Fight”). In this condition, incubation was carried out at 25° C. for 2 days. Thereafter, the front and back sides of the leaf were observed by visual inspection.

## VMIVVKTK (listed as Solanum lycopersicum) [TsORF6-1-8aa-3, partial peptide of TsORF6-1, 8 amino acid residues]
Botrytis cinerea [1]; peptide 1 μM
  Plate antimicrobial activity test Botrytis cinerea, level: 0
Botrytis cinerea [1]; peptide 10 μM
  Plate antimicrobial activity test Botrytis cinerea, level: 0
Botrytis cinerea [1]; peptide 100 μM
  Plate antimicrobial activity test Botrytis cinerea, level: 3
[2]; peptide 1 μM
  Plate antimicrobial activity test Colletotrichum destructivum, level: 0
[2]; peptide 10 μM
  Plate antimicrobial activity test Colletotrichum destructivum, level: 0
[2]; peptide 100 μM
  Plate antimicrobial activity test Colletotrichum destructivum, level: 3
[3]; peptide 1 μM
  Plate antimicrobial activity test Colletotrichum orbiculare, level: 0
[3]; peptide 10 μM
  Plate antimicrobial activity test Colletotrichum orbiculare, level: 0
[3]; peptide 100 μM
  Plate antimicrobial activity test Colletotrichum orbiculare, level: 3
Fusarium oxysporum
  Plate antimicrobial activity test Fusarium oxysporum, level: 3 and 0
Pyricularia oryzae; peptide 1 μM
  Plate antimicrobial activity test Pyricularia oryzae, level: 0
Pyricularia oryzae; peptide 10 μM
  Plate antimicrobial activity test Pyricularia oryzae, level: 0
Pyricularia oryzae; peptide 100 μM
  Plate antimicrobial activity test Pyricularia oryzae, level: 3
[4]; peptide 10 μM
  Leaf inoculation test Chinese cabbage/Colletotrichum destructivum: ◯
[4]; peptide 100 μM
  Leaf inoculation test Chinese cabbage/Colletotrichum destructivum: ◯
[5]
  germination inhibitory activity against plant pathogenic filamentous fungi, result in words: extremely excellent germination inhibitory activity

## KVMIV (listed as Solanum lycopersicum) [TsORF6-1-5aa-2, partial peptide of TsORF6-1, 5 amino acid residues]
Botrytis cinerea [1]; peptide 1 μM
  Plate antimicrobial activity test Botrytis cinerea, level: 0
Botrytis cinerea [1]; peptide 10 μM
  Plate antimicrobial activity test Botrytis cinerea, level: 0
Botrytis cinerea [1]; peptide 100 μM
  Plate antimicrobial activity test Botrytis cinerea, level: 1
[2]; peptide 1 μM
  Plate antimicrobial activity test Colletotrichum destructivum, level: 0
[2]; peptide 10 μM
  Plate antimicrobial activity test Colletotrichum destructivum, level: 0
[2]; peptide 100 μM
  Plate antimicrobial activity test Colletotrichum destructivum, level: 1
[3]; peptide 1 μM
  Plate antimicrobial activity test Colletotrichum orbiculare, level: 0
[3]; peptide 10 μM
  Plate antimicrobial activity test Colletotrichum orbiculare, level: 0
[3]; peptide 100 μM
  Plate antimicrobial activity test Colletotrichum orbiculare, level: 1
Fusarium oxysporum
  Plate antimicrobial activity test Fusarium oxysporum, level: 0
Pyricularia oryzae; peptide 1 μM
  Plate antimicrobial activity test Pyricularia oryzae, level: 0
Pyricularia oryzae; peptide 10 μM
  Plate antimicrobial activity test Pyricularia oryzae, level: 0
Pyricularia oryzae; peptide 100 μM
  Plate antimicrobial activity test Pyricularia oryzae, level: 0
[4]; peptide 100 μM
  Leaf inoculation test Chinese cabbage/Colletotrichum destructivum: ◯
[5]
  germination inhibitory activity against plant pathogenic filamentous fungi, result in words: extremely excellent germination inhibitory activity

## MKVMIVVK (listed as Solanum lycopersicum) [TsORF6-1-8aa-1, partial peptide of TsORF6-1, 8 amino acid residues]
Botrytis cinerea [1]; peptide 1 μM
  Plate antimicrobial activity test Botrytis cinerea, level: 0
Botrytis cinerea [1]; peptide 10 μM
  Plate antimicrobial activity test Botrytis cinerea, level: 0
Botrytis cinerea [1]; peptide 100 μM
  Plate antimicrobial activity test Botrytis cinerea, level: 2
[2]; peptide 1 μM
  Plate antimicrobial activity test Colletotrichum destructivum, level: 0
[2]; peptide 10 μM
  Plate antimicrobial activity test Colletotrichum destructivum, level: 0
[2]; peptide 100 μM
  Plate antimicrobial activity test Colletotrichum destructivum, level: 3
[3]; peptide 1 μM
  Plate antimicrobial activity test Colletotrichum orbiculare, level: 0
[3]; peptide 10 μM
  Plate antimicrobial activity test Colletotrichum orbiculare, level: 0
[3]; peptide 100 μM
  Plate antimicrobial activity test Colletotrichum orbiculare, level: 3
Fusarium oxysporum
  Plate antimicrobial activity test Fusarium oxysporum, level: 3 and 0
Pyricularia oryzae; peptide 1 μM
  Plate antimicrobial activity test Pyricularia oryzae, level: 0
Pyricularia oryzae; peptide 10 μM
  Plate antimicrobial activity test Pyricularia oryzae, level: 0
Pyricularia oryzae; peptide 100 μM
  Plate antimicrobial activity test Pyricularia oryzae, level: 3
[4]; peptide 10 μM
  Leaf inoculation test Chinese cabbage/Colletotrichum destructivum: Δ
[4]; peptide 100 μM
  Leaf inoculation test Chinese cabbage/Colletotrichum destructivum: ◯
[5]
  germination inhibitory activity against plant pathogenic filamentous fungi, result in words: extremely excellent germination inhibitory activity

## MKVMIVVKTKVKNKKVAKMMVKEDEKNKRVITMKEELMVVAEEEAYRRV RGGMGW (MKVMIVVKTKVKNKKVAKMMVKEDEKNKRVITMKEELMVVAEEEAYRRVRGGMGW; listed as Solanum lycopersicum) [TsORF6, peptide consisting of 55 amino acid residues identified in tomato xylem sap; total chain]
Botrytis cinerea [1]; peptide 1 μM
  Plate antimicrobial activity test Botrytis cinerea, level: 0
Botrytis cinerea [1]; peptide 10 μM
  Plate antimicrobial activity test Botrytis cinerea, level: 0
Botrytis cinerea [1]; peptide 100 μM
  Plate antimicrobial activity test Botrytis cinerea, level: 3
[2]; peptide 1 μM
  Plate antimicrobial activity test Colletotrichum destructivum, level: 0
[2]; peptide 10 μM
  Plate antimicrobial activity test Colletotrichum destructivum, level: 0
[2]; peptide 100 μM
  Plate antimicrobial activity test Colletotrichum destructivum, level: 0
[3]; peptide 1 μM
  Plate antimicrobial activity test Colletotrichum orbiculare, level: 0
[3]; peptide 10 μM
  Plate antimicrobial activity test Colletotrichum orbiculare, level: 0
[3]; peptide 100 μM
  Plate antimicrobial activity test Colletotrichum orbiculare, level: 1
Fusarium oxysporum
  Plate antimicrobial activity test Fusarium oxysporum, level: 3 and 0
Pyricularia oryzae; peptide 1 μM
  Plate antimicrobial activity test Pyricularia oryzae, level: 0
Pyricularia oryzae; peptide 10 μM
  Plate antimicrobial activity test Pyricularia oryzae, level: 0
Pyricularia oryzae; peptide 100 μM
  Plate antimicrobial activity test Pyricularia oryzae, level: 2
Botrytis cinerea [6]
  lesion of Botrytis cinerea on tomato leaf, result in words: a lesion of Botrytis cinerea was not observed
[4]; peptide 10 μM
  Leaf inoculation test Chinese cabbage/Colletotrichum destructivum: ◯
[4]; peptide 100 μM
  Leaf inoculation test Chinese cabbage/Colletotrichum destructivum: ◯

## VMIVV (listed as Solanum lycopersicum) [TsORF6-1-5aa-3, partial peptide of TsORF6-1, 5 amino acid residues]
Botrytis cinerea [1]; peptide 1 μM
  Plate antimicrobial activity test Botrytis cinerea, level: 0
Botrytis cinerea [1]; peptide 10 μM
  Plate antimicrobial activity test Botrytis cinerea, level: 0
Botrytis cinerea [1]; peptide 100 μM
  Plate antimicrobial activity test Botrytis cinerea, level: 1
[2]; peptide 1 μM
  Plate antimicrobial activity test Colletotrichum destructivum, level: 0
[2]; peptide 10 μM
  Plate antimicrobial activity test Colletotrichum destructivum, level: 0
[2]; peptide 100 μM
  Plate antimicrobial activity test Colletotrichum destructivum, level: 1
[3]; peptide 1 μM
  Plate antimicrobial activity test Colletotrichum orbiculare, level: 0
[3]; peptide 10 μM
  Plate antimicrobial activity test Colletotrichum orbiculare, level: 0
[3]; peptide 100 μM
  Plate antimicrobial activity test Colletotrichum orbiculare, level: 1
Fusarium oxysporum
  Plate antimicrobial activity test Fusarium oxysporum, level: 0
Pyricularia oryzae; peptide 1 μM
  Plate antimicrobial activity test Pyricularia oryzae, level: 0
Pyricularia oryzae; peptide 10 μM
  Plate antimicrobial activity test Pyricularia oryzae, level: 0
Pyricularia oryzae; peptide 100 μM
  Plate antimicrobial activity test Pyricularia oryzae, level: 0
[4]; peptide 100 μM
  Leaf inoculation test Chinese cabbage/Colletotrichum destructivum: ◯
[5]
  germination inhibitory activity against plant pathogenic filamentous fungi, result in words: extremely excellent germination inhibitory activity

## VAKMM (listed as Solanum lycopersicum) [TsORF6-1-5aa-16, partial peptide of TsORF6-1, 5 amino acid residues]
Botrytis cinerea [1]; peptide 1 μM
  Plate antimicrobial activity test Botrytis cinerea, level: 0
Botrytis cinerea [1]; peptide 10 μM
  Plate antimicrobial activity test Botrytis cinerea, level: 0
Botrytis cinerea [1]; peptide 100 μM
  Plate antimicrobial activity test Botrytis cinerea, level: 0
[2]; peptide 1 μM
  Plate antimicrobial activity test Colletotrichum destructivum, level: 0
[2]; peptide 10 μM
  Plate antimicrobial activity test Colletotrichum destructivum, level: 0
[2]; peptide 100 μM
  Plate antimicrobial activity test Colletotrichum destructivum, level: 0
[3]; peptide 1 μM
  Plate antimicrobial activity test Colletotrichum orbiculare, level: 0
[3]; peptide 10 μM
  Plate antimicrobial activity test Colletotrichum orbiculare, level: 0
[3]; peptide 100 μM
  Plate antimicrobial activity test Colletotrichum orbiculare, level: 0
Fusarium oxysporum
  Plate antimicrobial activity test Fusarium oxysporum, level: 0
Pyricularia oryzae; peptide 1 μM
  Plate antimicrobial activity test Pyricularia oryzae, level: 0
Pyricularia oryzae; peptide 10 μM
  Plate antimicrobial activity test Pyricularia oryzae, level: 0
Pyricularia oryzae; peptide 100 μM
  Plate antimicrobial activity test Pyricularia oryzae, level: 0
[4]; peptide 100 μM
  Leaf inoculation test Chinese cabbage/Colletotrichum destructivum: ◯
[5]
  germination inhibitory activity against plant pathogenic filamentous fungi, result in words: extremely excellent germination inhibitory activity
